In US20120083599A1 (UNIVERSITY OF NOTTINGHAM, priority 2009, published 2012):
Read-outs that look alike come from different tables or passages of the source.

Assays:
biotin ligase (BirA) = biotin ligase (BirA) (Escherichia coli, UniProt P06709); test: Addition to acceptor peptide using BirA biotin ligase (HPLC); format: biochemical, E. coli; conditions: for Substrate for BirA: biotin ligase (BirA) from E. coli
avidin [1] = target: T1, avidin (Gallus gallus, UniProt P02701); test: Binding affinity for avidin by isothermal titration calorimetry
avidin [2] = target: T1, avidin; test: Binding to avidin after click chemistry attachment of a fluorophore (native gel)
Procedure: 2) With protein (avidin) present: 0.29 mL 2-azidiobiotin solution (3.5 mM in Buffer A) was diluted in 0.71 mL Buffer A, then 1 mL avidin solution (0.21 mM) was added. The mixed solution was put in a shaker (25° C., 100 rpm) for 1 h. Then 0.5 mL alkynyl tag solution (10 mM in dioxane), 0.5 mL CuSO4-TTA solution (10 mM in ^tBuOH:H2O (4:1) solvents), 0.2 mL TCEP.HCl solution (50 mM in H2O), 0.5 mL NaHCO3 solution (200 mM in H2O), 0.25 mL ^tBuOH, 1 mL H2O were added to the reaction mixture. The mixture was put on the shaker (25° C., 100 rpm) for 2 h, then stored at 4° C. Buffer A: pH 7.4 20 mM phosphate, 150 mM NaCl buffer.

other biotin ligases = conditions: cited from earlier work
biotin ligase [3] = conditions: cited from earlier work
biotin ligase [4] = target: T2, biotin ligase (Saccharomyces cerevisiae, UniProt P48445); conditions: cited from earlier work
T2 sequence (P48445 1-690): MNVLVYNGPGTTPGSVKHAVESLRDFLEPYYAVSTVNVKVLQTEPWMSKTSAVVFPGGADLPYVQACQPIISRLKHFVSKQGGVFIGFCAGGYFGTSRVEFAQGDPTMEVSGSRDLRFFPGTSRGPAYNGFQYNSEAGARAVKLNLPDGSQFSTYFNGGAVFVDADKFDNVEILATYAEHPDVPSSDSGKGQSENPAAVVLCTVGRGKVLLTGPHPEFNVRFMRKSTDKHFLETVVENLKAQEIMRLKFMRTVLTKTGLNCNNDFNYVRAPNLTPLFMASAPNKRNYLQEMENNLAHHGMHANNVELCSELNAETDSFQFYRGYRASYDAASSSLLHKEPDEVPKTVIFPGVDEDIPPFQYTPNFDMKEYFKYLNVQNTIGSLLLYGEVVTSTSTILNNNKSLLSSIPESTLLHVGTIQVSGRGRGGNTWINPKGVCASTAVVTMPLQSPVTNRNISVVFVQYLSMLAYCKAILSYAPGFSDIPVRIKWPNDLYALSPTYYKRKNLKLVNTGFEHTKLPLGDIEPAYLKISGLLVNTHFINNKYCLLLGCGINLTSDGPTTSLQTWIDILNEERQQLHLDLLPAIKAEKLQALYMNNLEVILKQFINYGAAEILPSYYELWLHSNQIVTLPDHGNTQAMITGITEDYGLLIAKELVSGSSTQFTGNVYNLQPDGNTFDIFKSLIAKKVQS

BirA = BirA (Escherichia coli, UniProt P06709); conditions: cited from earlier work
Chain of BirA (P06709 whole entry): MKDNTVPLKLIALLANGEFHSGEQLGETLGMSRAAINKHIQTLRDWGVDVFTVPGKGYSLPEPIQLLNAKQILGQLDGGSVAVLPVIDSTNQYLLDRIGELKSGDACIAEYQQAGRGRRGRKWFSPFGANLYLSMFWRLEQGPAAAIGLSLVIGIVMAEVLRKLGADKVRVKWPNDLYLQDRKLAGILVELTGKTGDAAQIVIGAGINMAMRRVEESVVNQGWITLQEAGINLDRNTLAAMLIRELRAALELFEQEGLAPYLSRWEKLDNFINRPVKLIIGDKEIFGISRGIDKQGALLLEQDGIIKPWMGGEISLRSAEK

Chain of biotin ligase (BirA) (P06709 whole entry): as above
T1 sequence (P02701 25-152, species assumed): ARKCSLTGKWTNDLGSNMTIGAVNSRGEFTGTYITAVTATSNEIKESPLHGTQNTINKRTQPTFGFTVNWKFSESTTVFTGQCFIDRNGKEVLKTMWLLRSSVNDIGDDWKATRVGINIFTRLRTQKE

Row | Compound | Substrate for BirA (biotin ligase (BirA)) | Affinity for avidin (in words) (avidin [1]) | Binds to avidin (avidin [1]) | Binds to avidin once covalently modified (avidin [2]) | Substrate for other biotin ligases (other biotin ligases) | other results
1 | 6-Azidodesthiobiotin | not substrates | low affinities | Very weak | No | – | Substrate for BirA (biotin ligase (BirA); listed as E 6-azido-desthiobiotin): No
2 | 8-Azidodesthiobiotin | not substrates | low affinities | Very weak | No | Yes | Substrate for BirA (biotin ligase (BirA); listed as D 8-azido-desthiobiotin): No
3 | [N-]=[N+]=NC(CCC[C@@H]1SC[C@@H]2NC(=O)N[C@@H]21)C(=O)O (stereo partly shown) [2-azidobiotin] | Yes | moderate-good affinity | Yes | able to binded to avidin | – | Level of conversion to acceptor peptide adduct by BirA, compared with biotin (biotin ligase (BirA); HPLC, 30 C, 1 h): very similar to that of biotin; Kd (avidin [1]; ITC, pH 7.4, 20 mM phosphate, 150 mM NaCl): ~100 nM; Binds to avidin once covalently modified (avidin [2]; listed as 2 Azidobiotin): Yes
4 | O=C(O)CCCC[C@@H]1SC[C@@H]2NC(=O)N[C@@H]21 [biotin] | Yes | – | Yes | – | Yes | –
5 | C#CCN1C(=O)N[C@H]2CS[C@@H](CCCCC(=O)O)[C@H]21 [cis-propargyl biotin] | No | – | No/very weak | No | Yes | Substrate of Pyrococcus horikoshii biotin ligase (biotin ligase [3]): could use; Substrate of Saccharomyces cerevisiae biotin ligase (biotin ligase [4]): could utilise
6 | C[C@@H]1NC(=O)N[C@@H]1CCCCCC(=O)O [desthiobiotin] | – | – | – | – | – | Substrate of Pyrococcus horikoshii biotin ligase (biotin ligase [3]): could use
7 | O=C(O)CCCC[C@@H]1SC[C@@H]2CC(=O)C[C@@H]21 [ketone biotin, Ketone biotin] | Yes | – | – | No | – | BirA ligation yield (product inhibition) (BirA): ~50%
